In US8895585B2, “Nicotinamide derivative or salt thereof” (FUJIFILM Corporation, priority 2010, dated 2014) one finds IC50 data, which are given here for 43 compounds.

In this test the target is T1, glutathione S-transferase (GST)-fused full-length human Syk protein (Homo sapiens, UniProt P43405).
T1 construct: (GST)-fused full-length human Syk protein; GST (glutathione S-transferase); purchased Carna Biosciences
The test can be described thus: Syk enzyme assay. Format: biochemical. The essentials:
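GST-tagged full-length human Syk (baculovirus) preincubated with compound 15 min at room temperature (pH 7.0, 10 mM MgCl2), then reacted 40 min with 0.4 μM biotinylated peptide substrate and 27 μM ATP (final). Phosphorylation read by HTRF (615/665 nm) after EDTA stop; IC50 reported.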

Setting [1] is: Syk enzyme assay, Test Example 1, read-out: IC50 of Syk-inhibitory activity.
The mark [2] stands for this setting: read-out: Syk-inhibitory activity (IC50).

Read-outs that look alike come from different tables or passages of the source.

For the compound `COc1cccc(-c2cc(Nc3nc(N[C@@H](CN)CC(C)C)c(F)cc3C(N)=O)ccn2)c1` [Example 006-325, (R)-6-((1-amino-4-methylpentan-2-yl)amino)-5-fluoro-2-((2-(3-methoxyphenyl)pyridin-4-yl)amino)nicotinamide], the IC50 under setting [1] was under 10 nM.

For the compound `NC(=O)c1cc(F)c(NC2CCCCC2N)nc1Nc1ccnc(-c2ccccc2)c1` (stereo not shown) [Example 002-052], under setting [1], the IC50 is under 10 nM.

As to `NCCNCCNc1nc(Nc2ccnc(-n3nccn3)c2)c(C(N)=O)cc1F` [Example 002-129], the IC50 under setting [1] is 100 to 1000 nM.

As for `NC(=O)c1cc(F)c(N[C@@H]2CCCC[C@@H]2N)nc1Nc1cncc(NC(=O)c2ccc(S(=O)(=O)F)cc2)c1` (relative stereo) [Example 027-017, 4-((5-(6-(cis-2-aminocyclohexylamino)-3-carbamoyl-5-fluoropyridin-2-yl)aminopyridin-3-yl)carbamoyl)benzene-1-sulfonyl fluoride], the IC50 under setting [1] was in the range of 10 to 50 nM.

For `NC(=O)c1cc(F)c(NCC2CCCCN2)nc1Nc1ccc2ncccc2c1` (stereo not shown) [Example 014-021], under setting [1], the IC50 was in the range of 100 to 1000 nM.

For the compound `NC(=O)c1cc(F)c(NC2CCCCC2N)nc1Nc1ccc(N2CCCCC2=O)nc1` (stereo not shown) [Example 002-157], the IC50 under setting [1] was in the range of 100 to 1000 nM.

For `NC(=O)c1cc(F)c(N[C@@H]2CCCC[C@@H]2N)nc1Nc1cnc(N2CCOCC2)c(-n2ccnn2)c1` [Example 006-534, 6-(((1R,2S)-2-aminocyclohexyl)amino)-5-fluoro-2-((6-morpholino-5-(1H-1,2,3-triazol-1-yl)pyridin-3-yl)amino)nicotinamide], the IC50 under setting [1] lay in the range of 100 to 1000 nM.

On to `CCCC[C@@H](Nc1nc(Nc2cnc3cc(OC)ccc3c2)c(C(N)=O)cc1F)[C@H](C)N` [Example 006-205, 6-(((2S,3R)-2-aminoheptan-3-yl)amino)-5-fluoro-2-((7-methoxyquinolin-3-yl)amino)nicotinamide], for which the IC50 under setting [1] was under 10 nM.

As to `COc1cc(Nc2nc(N3CCC(N)C3)c(F)cc2C(N)=O)cc(OC)c1` (stereo not shown) [Example 018-001], the IC50 under setting [1] was in the range of 100 to 1000 nM.

As to `COc1cc(Nc2nc(N[C@H](C(N)=O)c3ccccc3)c(F)cc2C(N)=O)cc(OC)c1` [Example 016-018], the IC50 under setting [1] fell in the range of 100 to 1000 nM.

In the case of `COc1ncc(Nc2nc(NC3CCCCC3N)c(F)cc2C(N)=O)cc1-c1ccco1` (stereo not shown) [Example 002-150], the IC50 under setting [1] lay in the range of 10 to 50 nM.

Turning to `CCC[C@@H](Nc1nc(Nc2ccc3ncccc3c2)c(C(N)=O)cc1F)C(N)=O` [Example 012-038], the IC50 under setting [1] lay within 10 to 50 nM.

With `COc1ccc(C[C@@H](Nc2nc(Nc3ccc4ncccc4c3)c(C(N)=O)cc2F)C(N)=O)cc1` [Example 012-034], the IC50 under setting [1] was 100 to 1000 nM.

Take `Cn1c(C(=O)N2CCOCC2)cc2c(Nc3nc(NC4CCCC[C@@H]4N)c(F)cc3C(N)=O)ccnc21` (stereo partly shown) [Example 029-010]: the IC50 under setting [1] lay within 100 to 1000 nM.

Take `NC(=O)c1cc(F)c(N[C@@H]2CCCC[C@@H]2N)nc1Nc1cnc2c(NC(=O)c3ccccn3)cccc2c1` (relative stereo) [Example 41-10, 6-(cis-2-aminocyclohexylamino)-5-fluoro-2-((8-picolinamidequinolin-3-yl)amino)nicotinamide]: the IC50 under setting [1] is under 10 nM.

On to `NC(=O)c1cc(F)c(N[C@H](c2ccccc2)[C@@H](N)c2ccccc2)nc1Nc1ccc2ncccc2c1` (racemic) [Example 006-135, 6-(((1R,2S)-2-amino-1,2-diphenylethyl)amino)-5-fluoro-2-(quinolin-6-ylamino)nicotinamide 6-(((1S,2R)-2-amino-1,2-diphenylethyl)amino)-5-fluoro-2-(quinolin-6-ylamino)nicotinamide], for which the IC50 under setting [1] was under 10 nM.

`NCCNc1nc(Nc2cccc(C(=O)N3CCCCC3)c2)c(C(N)=O)cc1F` [Example 031-002]: under setting [1], the IC50 lay in the range of 100 to 1000 nM.

As for `CC(C)COc1cc(Nc2nc(NC3CCCCC3N)c(F)cc2C(N)=O)ccn1` (stereo not shown) [Example 002-084], the IC50 under setting [1] is under 10 nM.

Consider `NC(=O)c1cc(F)c(N[C@@H]2CCCC[C@@H]2N)nc1Nc1cnc(-n2cccn2)c(-n2cccn2)c1` [Example 006-448, 6-(((1R,2S)-2-aminocyclohexyl)amino)-2-((5,6-di(1H-pyrazol-1-yl)pyridin-3-yl)amino)-5-fluoronicotinamide], for which, under setting [1], the IC50 fell in the range of 50 to 100 nM.

In the case of `CC(C)(C)[C@H](N)CNc1nc(Nc2ccc3ncccc3c2)c(C(N)=O)cc1F` [Example 014-015, (S)-6-((2-amino-3,3-dimethylbutyl)amino)-5-fluoro-2-((quinolin-6-yl)amino)nicotinamide], the IC50 under setting [1] was in the range of 50 to 100 nM.

Turning to `NC(=O)c1cc(F)c(N[C@@H]2CCCC[C@@H]2N)nc1Nc1cncc(-c2ccccc2O)c1` (relative stereo) [Example 004-186, 6-(cis-2-aminocyclohexylamino)-5-fluoro-2-((5-(2-hydroxyphenyl)pyridin-3-yl)amino)nicotinamide], under setting [1], the IC50 is under 10 nM.

For the compound `COCCOc1cc(Nc2nc(N[C@@H]3CCCC[C@@H]3N)c(F)cc2C(N)=O)cc2cccnc12` (relative stereo) [Example 004-139, 6-(cis-2-aminocyclohexylamino)-5-fluoro-2-((8-(2-methoxyethoxy)quinolin-6-yl)amino)-nicotinamide], the IC50 under setting [1] is under 10 nM.

For the compound `CCC[C@@H](Nc1nc(Nc2ccc(N3CCOCC3)nc2)c(C(N)=O)cc1F)[C@H](C)N` [Example 006-246, 6-(((2S,3R)-2-aminohexan-3-yl)amino)-5-fluoro-2-((6-mopholinopyridin-3-yl)amino)nicotinamide], the half-inhibitory concentration (IC50) under setting [1] was 10 to 50 nM.

As to `NC(=O)c1cc(F)c(N[C@@H]2CCCC[C@@H]2N)nc1Nc1cncc(-c2cccc(N3CCCC3=O)c2)c1` (relative stereo) [Example 004-225, 6-(cis-2-aminocyclohexylamino)-5-fluoro-2-((5-(3-(2-oxopyrrolidin-1-yl)phenyl)pyridin-3-yl)amino)nicotinamide], the IC50 under setting [1] is 10 to 50 nM.

For the compound `NC(=O)c1cc(F)c(NC2CCCCC2N)nc1Nc1cnc2oc3ccccc3c2c1` (stereo not shown) [Example 002-195], under setting [1], the IC50 is under 10 nM.

With `Cc1cncc(Nc2nc(N[C@H](c3ccccc3)[C@@H](N)c3ccccc3)c(F)cc2C(N)=O)c1` (racemic) [Example 006-140, 6-(((1R,2S)-2-amino-1,2-diphenylethyl)amino)-5-fluoro-2-((5-methylpyridin-3-yl)amino)nicotinamide 6-(((1S,2R)-2-amino-1,2-diphenylethyl)amino)-5-fluoro-2-((5-methylpyridin-3-yl)amino)nicotinamide], under setting [1], the IC50 is 50 to 100 nM.

`COc1cc(Nc2nc(N[C@H](C(N)=O)c3ccccc3)c(F)cc2C(N)=O)cc(OC)c1` [Example 16-18, 6-(((1S)-2-amino-2-oxo-1-phenylethyl)amino)-2-((3,5-dimethoxyphenyl)amino)-5-fluoronicotinamide]: under setting [2], the half-inhibitory concentration (IC50) is at most 1000 nM.

As for `NC(=O)c1cc(F)c(NC[C@@H](N)c2ccccc2)nc1Nc1cccc(-n2nccn2)c1` [Example 006-120, (S)-2-((3-(2H-1,2,3-triazol-2-yl)phenyl)amino)-6-((2-amino-2-phenylethyl)amino)-5-fluoronicotinamide], under setting [1], the IC50 was in the range of 10 to 50 nM.

For the compound `NCCNCCNc1nc(Nc2ccnc(-n3cncn3)c2)c(C(N)=O)cc1F` [Example 002-130], under setting [1], the IC50 lay in the range of 100 to 1000 nM.

Turning to `CN(C)c1ccc2cc(Nc3nc(N[C@@H]4CCCC[C@@H]4N)c(F)cc3C(N)=O)cnc2c1` [Example 004-126], the IC50 under setting [1] lay in the range of 10 to 50 nM.

Take `NC(=O)c1cc(F)c(NC2CCCCC2N)nc1Nc1ccnc(-c2ccc3c(c2)OCO3)c1` (stereo not shown) [Example 002-176]: under setting [1], the IC50 was under 10 nM.

For `NC(=O)c1cc(F)c(NCCc2cnc[nH]2)nc1Nc1ccc2ncccc2c1` [Example 012-014], the IC50 under setting [1] is 100 to 1000 nM.

`NC(=O)c1cc(F)c(N[C@@H]2CCCC[C@@H]2N)nc1Nc1cncc(-c2ccc(OCCN3CCOCC3)cc2)c1` (relative stereo) [Example 004-112, 6-(cis-2-aminocyclohexylamino)-5-fluoro-2-((5-(4-(2-morpholinoethoxy)phenyl)pyridin-3-yl)amino)nicotinamide]: the IC50 under setting [1] was under 10 nM.

Consider `COc1cccc(C(=O)Nc2cncc(Nc3nc(NC4CCCCC4N)c(F)cc3C(N)=O)c2)c1` (stereo not shown) [Example 027-028], for which, under setting [1], the IC50 is 10 to 50 nM.

Consider `NC(=O)c1cc(F)c(NC2CCCCC2N)nc1Nc1cncc(-c2ccc(OC(F)(F)F)cc2)c1` (stereo not shown) [Example 002-174], for which, under setting [1], the IC50 lay within 50 to 100 nM.

On to `CCC[C@@H](Nc1nc(Nc2ccc3c(cnn3CC)c2)c(C(N)=O)cc1F)[C@@H](N)CC` [Example 006-399, 6-(((3S,4R)-3-aminoheptan-4-yl)amino)-2-((1-ethyl-1H-indazol-5-yl)amino)-5-fluoronicotinamide], for which the IC50 under setting [1] is under 10 nM.

On to `NC(=O)c1cncc(Nc2nc(N[C@@H]3CCCC[C@@H]3N)c(F)cc2C(N)=O)c1` (relative stereo) [Example 28, 2-(5-aminocarbonylpyridin-3-ylamino)-6-(cis-2-aminocyclohexylamino)-5-fluoronicotinamide], for which the IC50 under setting [2] was at most 1000 nM.

For the compound `CC(C)COc1ccc2cc(Nc3nc(NC4CCCCC4N)c(F)cc3C(N)=O)ccc2n1` (stereo not shown) [Example 002-105], the IC50 under setting [1] fell in the range of 10 to 50 nM.

On to `CNC(=O)c1cc2c(Nc3nc(NC4CCCCC4N)c(F)cc3C(N)=O)ccnc2n1C` (stereo not shown) [Example 029-008], for which the IC50 under setting [1] lay in the range of 10 to 50 nM.

As to `COc1cc(Nc2nc(NCc3ccc(N)cc3)c(F)cc2C(N)=O)cc(OC)c1` [Example 016-015], under setting [1], the IC50 was 100 to 1000 nM.

`COc1ncc(Nc2nc(NC3CCCCC3N)c(F)cc2C(N)=O)cc1-c1ccccc1F` (stereo not shown) [Example 002-149]: the IC50 under setting [1] fell in the range of 10 to 50 nM.

As to `NC(=O)c1cc(F)c(NC2CCCCC2N)nc1Nc1cncc(NC(=O)c2ccncc2)c1` (stereo not shown) [Example 027-022], the IC50 under setting [1] lay in the range of 10 to 50 nM.

In the case of `NC(=O)c1cc(F)c(N[C@@H]2CCCC[C@@H]2N)nc1Nc1cncc(COCc2ccccc2)c1` (relative stereo) [Example 004-189, 6-(cis-2-aminocyclohexylamino)-2-((5-((benzyloxy)methyl)pyridin-3-yl)amino)-5-fluoronicotinamide], under setting [1], the IC50 was 50 to 100 nM.

One may read the IC50 as the concentration that gives 50% inhibition.
